Data from paper PMC5661635, “Targeting the CXCR4/CXCL12 axis with the peptide antagonist E5 to inhibit breast tumor progression” (Signal Transduction and Targeted Therapy, 2017).
No end group written: not given here.

Columns and labels:
CXCR4 = conditions: cited from earlier work
From the text: Nevertheless, challenges still exist in clinical applications. […] In addition, it is known that existing pep ...

4T1 tumors = assay: 4T1 breast cancer model in BALB/c mice; assay type: in vivo; conditions: day 33 after inoculation; E5 40 mg kg^-1 s.c. every other day; PTX 8 mg kg^-1 i.p. once a week; n=9
Experimental: For animal experiments, 1×10^6 4T1 cells were orthotopically inoculated into the right fourth mammary fat pat of BALB/c mice. Seven days after inoculation, the mice were randomized in six groups (n=9 for each group): the control group, the E5 (40 mg kg^−1) group, the chemotherapeutic drug groups (cyclophosphamide (CTX, 90 mg kg^−1) or paclitaxel (PTX, 8 mg kg^−1)), and a group consisting of E5 combined with one of the drugs. E5 solution was subcutaneously injected around solid tumors every other day, and drugs were intraperitoneally injected once a week. The control tumor-bearing mice were treated an equal volume of solvent. The tumor sizes were measured every four days with a caliper. Tumor volume was calculated according to the formula: V=(a×b^2)/2, where a and b are the maximal and minimal diameter in millimeters, respectively. On day 33 after cell injection, the mice were killed by cervical dislocation. The tumors and main organs from each group were weighed immediately after dissection and preserved at −80 °C for further analysis.

HUVECs = assay: CCK-8 cell viability assay; assay type: cell-based, human; conditions: E5 concentrations up to 100 μM, 24 h
4T1 cells = assay: Drug sensitivity under CXCL12 stimulus or conditional medium (CCK-8); assay type: cell-based, murine; conditions: E5 10 μM; MS-5 conditional medium or medium with 200 ng ml^-1 CXCL12; paclitaxel 4, 20, 100 nM, elemene 10, 20, 40 mg l^-1, cisplatin 2, 4, 8 μM; 24 h
Experimental: Briefly, 1×10^4 4T1 cells were pre-seeded in 96-well culture plates and incubated overnight. Then, the cells were treated with 10 μM E5 in serum-free medium for 2 h, followed by the addition of either complete medium with 200 ng ml^−1 CXCL12 or conditional medium obtained from 48 h of incubation with MS-5 cells for an additional 4 h of treatment. After that, the cells were incubated the chemotherapeutic drugs paclitaxel (4, 20 and 100 nM), elemene (10, 20 and 40 mg l^−1), or cisplatin (2, 4 and 8 μM) for an additional 24 h. The 4T1 cell viability was analyzed using the CCK-8 assay. The absorbance value of 4T1 cells in the absence of drug treatment was set as 100%.

[1] = E5 every other day in healthy BALB/c mice; cited from earlier work
Experimental: (§1) The cytotoxicity of blocking CXCR4 with antagonists depends on the concentration and the cell types. For instance, CXCR4 antagonist BKT140 could induce 15–35% cell death at 4 or 8 μM. When its concentration was high as 20 μM, the cell death rate was about 60%.[35]

[2] = tested on: multiple acute myeloid leukemia cell lines; conditions: E5 below 30 μM; cited from earlier work
Experimental: as §1

[3] = in vivo; cited from earlier work

c1cc(CN2CCCNCCNCCCNCC2)ccc1CN1CCCNCCNCCCNCC1 [AMD3100, Plerixafor]
agonist activity (CXCR4): weak partial agonist activity

CC(=O)O[C@H]1C(=O)[C@@]2(C)[C@H]([C@H](OC(=O)c3ccccc3)[C@]3(O)C[C@H](OC(=O)[C@H](O)[C@@H](NC(=O)c4ccccc4)c4ccccc4)C(C)=C1C3(C)C)[C@]1(OC(C)=O)CO[C@@H]1C[C@@H]2O [PTX, paclitaxel]
effect on tumor weight compared with the control group (4T1 tumors): did not show a significant inhibitory effect

GGRSFFLLRRIQGCRFRNTVDD [E5]
cytotoxicity to HUVECs (HUVECs): did not show obvious cytotoxicity | effect on cytotoxic effects of paclitaxel, elemene and cisplatin to 4T1 (4T1 cells): could enhance the cytotoxic effects | side effects (organs weight, serum clinical parameters, H&E of heart, kidney, lung, spleen) [1]: did not show detectable side effects | direct induction of cell death [2]: did not induce cell death directly

LY2510924
half-life [3]: 3 to 5 h
